Test results published in the supplement of paper PMC13380429.

Tests used:
Details in all cases: 72 h
[1] = test system: Calu-3; test: relative viability EC50 (midpoint between 100% and the lowest measured viability); higher = less toxic
[2] = test system: HepG2; test: as above
[3] = test system: Caco-2; test: as above
[4] = test system: U2OS; test: as above
[5] = test system: Vero E6; test: as above
[6] = test system: Calu-3; test: drug sensitivity score (DSS) for viability; higher = more toxic; extreme values may be limits of the assay
[7] = test system: HepG2; test: as above
[8] = test system: Caco-2; test: as above
[9] = test system: U2OS; test: as above
[10] = test system: Vero E6; test: as above
[11] = test system: Calu-3; test: cell viability relative to DMSO; higher = less toxic
[12] = test system: HepG2; test: as above
[13] = test system: Caco-2; test: as above
[14] = test system: U2OS; test: as above
[15] = test system: Vero E6; test: as above

With `CN[C@@H](C)C(=O)N[C@H](C(=O)N1CCC[C@H]1C(=O)N[C@H]1c2ccccc2C[C@H]1OCC#CC#CCO[C@@H]1Cc2ccccc2[C@@H]1NC(=O)[C@@H]1CCCN1C(=O)[C@@H](NC(=O)[C@H](C)NC)C1CCCCC1)C1CCCCC1` [AZD5582] the “relative viability EC50” value [1] was 0.927 µM, the “relative viability EC50” value [2] was over 10 µM and the “relative viability EC50” value [3] was over 10 µM. For the same molecule, the “relative viability EC50” value [4] was over 10 µM, the “relative viability EC50” value [5] was over 10 µM and the drug sensitivity score [6] was 6.8. The drug sensitivity score [7] was 0, the drug sensitivity score [8] was 1.1 and the drug sensitivity score [9] was 0. For the same molecule, the drug sensitivity score [10] was 0, the cell viability ([11]; 1 nM) was 102% and the cell viability ([11]; 10 nM) was 99.8%. It also gave a cell viability ([11]; 100 nM) of 85.8%, a cell viability ([11]; 1000 nM) of 73.2% and a cell viability ([11]; 10000 nM) of 37.7%. The cell viability ([12]; 1 nM) was 107%, the cell viability ([12]; 10 nM) was 98.8% and the cell viability ([12]; 100 nM) was 94%. It also gave a cell viability ([12]; 1000 nM) of 106%, a cell viability ([12]; 10000 nM) of 87.8% and a cell viability ([13]; 1 nM) of 93.3%. For the same molecule, the cell viability ([13]; 10 nM) was 103%, the cell viability ([13]; 100 nM) was 102% and the cell viability ([13]; 1000 nM) was 93.4%. The cell viability ([13]; 10000 nM) was 82.4%, the cell viability ([14]; 1 nM) was 98.3% and the cell viability ([14]; 10 nM) was 104%. The cell viability ([14]; 100 nM) was 98.4%, the cell viability ([14]; 1000 nM) was 101% and the cell viability ([14]; 10000 nM) was 91.1%. For the same molecule, the cell viability ([15]; 1 nM) was 100%, the cell viability ([15]; 10 nM) was 106% and the cell viability ([15]; 100 nM) was 119%. For the same molecule, the cell viability ([15]; 1000 nM) was 95.2% and the cell viability ([15]; 10000 nM) was 136%.
With `Cc1ncc(CO)c(C=O)c1O` [pyridoxal] the “relative viability EC50” value [1] was over 10 µM, the “relative viability EC50” value [2] was over 10 µM and the “relative viability EC50” value [3] was over 10 µM. For the same molecule, the “relative viability EC50” value [4] was over 10 µM, the “relative viability EC50” value [5] was over 10 µM and the drug sensitivity score [6] was 0. For the same molecule, the drug sensitivity score [7] was 1.3, the drug sensitivity score [8] was 0 and the drug sensitivity score [9] was 0. For the same molecule, the drug sensitivity score [10] was 0, the cell viability ([11]; 1 nM) was 105% and the cell viability ([11]; 10 nM) was 91.4%. For the same molecule, the cell viability ([11]; 100 nM) was 99.9%, the cell viability ([11]; 1000 nM) was 99.7% and the cell viability ([11]; 10000 nM) was 118%. For the same molecule, the cell viability ([12]; 1 nM) was 91%, the cell viability ([12]; 10 nM) was 81.7% and the cell viability ([12]; 100 nM) was 102%. For the same molecule, the cell viability ([12]; 1000 nM) was 94.1%, the cell viability ([12]; 10000 nM) was 80% and the cell viability ([13]; 1 nM) was 114%. For the same molecule, the cell viability ([13]; 10 nM) was 104%, the cell viability ([13]; 100 nM) was 104% and the cell viability ([13]; 1000 nM) was 112%. For the same molecule, the cell viability ([13]; 10000 nM) was 92.1%, the cell viability ([14]; 1 nM) was 98.6% and the cell viability ([14]; 10 nM) was 95.7%. For the same molecule, the cell viability ([14]; 100 nM) was 103%, the cell viability ([14]; 1000 nM) was 103% and the cell viability ([14]; 10000 nM) was 99.9%. The cell viability ([15]; 1 nM) was 102%, the cell viability ([15]; 10 nM) was 92.6% and the cell viability ([15]; 100 nM) was 96%. The cell viability ([15]; 1000 nM) was 94.4% and the cell viability ([15]; 10000 nM) was 102%.
In the case of `CCN(CC)Cc1ccc2cc(COC(=O)Nc3ccc(C(=O)NO)cc3)ccc2c1` [givinostat], the “relative viability EC50” value [1] is reported as 0.263 µM, the “relative viability EC50” value [2] is reported as 0.327 µM and the “relative viability EC50” value [3] is reported as 0.686 µM. For the same molecule, the “relative viability EC50” value [4] was 0.561 µM, the “relative viability EC50” value [5] was 0.653 µM and the drug sensitivity score [6] was 15.6. It also gave a drug sensitivity score [7] of 17, a drug sensitivity score [8] of 13.1 and a drug sensitivity score [9] of 14.3. It also gave a drug sensitivity score [10] of 13.8, a cell viability ([11]; 1 nM) of 88.3% and a cell viability ([11]; 10 nM) of 94.6%. For the same molecule, the cell viability ([11]; 100 nM) was 77.1%, the cell viability ([11]; 1000 nM) was 30.8% and the cell viability ([11]; 10000 nM) was 12.9%. For the same molecule, the cell viability ([12]; 1 nM) was 99.8%, the cell viability ([12]; 10 nM) was 102% and the cell viability ([12]; 100 nM) was 80.9%. For the same molecule, the cell viability ([12]; 1000 nM) was 20.4%, the cell viability ([12]; 10000 nM) was 0.1% and the cell viability ([13]; 1 nM) was 97.8%. It also gave a cell viability ([13]; 10 nM) of 89.7%, a cell viability ([13]; 100 nM) of 93.2% and a cell viability ([13]; 1000 nM) of 38.4%. For the same molecule, the cell viability ([13]; 10000 nM) was 0.8%, the cell viability ([14]; 1 nM) was 99.6% and the cell viability ([14]; 10 nM) was 93.2%. It also gave a cell viability ([14]; 100 nM) of 92.7%, a cell viability ([14]; 1000 nM) of 30.8% and a cell viability ([14]; 10000 nM) of 0.6%. The cell viability ([15]; 1 nM) was 94.7%, the cell viability ([15]; 10 nM) was 97.7% and the cell viability ([15]; 100 nM) was 96.7%. It also gave a cell viability ([15]; 1000 nM) of 31.6% and a cell viability ([15]; 10000 nM) of -0.1%.
For `C1CCN2C[C@@H]3C[C@@H](CN4CCCC[C@@H]34)[C@H]2C1` [sparteine-sulfate], the “relative viability EC50” value [1] was over 10 µM, the “relative viability EC50” value [2] was over 10 µM and the “relative viability EC50” value [3] was over 10 µM. For the same molecule, the “relative viability EC50” value [4] was over 10 µM, the “relative viability EC50” value [5] was over 10 µM and the drug sensitivity score [6] was 0. The drug sensitivity score [7] was 0, the drug sensitivity score [8] was 2.6 and the drug sensitivity score [9] was 0. For the same molecule, the drug sensitivity score [10] was 0, the cell viability ([11]; 1 nM) was 114% and the cell viability ([11]; 10 nM) was 104%. For the same molecule, the cell viability ([11]; 100 nM) was 108%, the cell viability ([11]; 1000 nM) was 116% and the cell viability ([11]; 10000 nM) was 86.7%. The cell viability ([12]; 1 nM) was 94.9%, the cell viability ([12]; 10 nM) was 101% and the cell viability ([12]; 100 nM) was 102%. The cell viability ([12]; 1000 nM) was 89%, the cell viability ([12]; 10000 nM) was 102% and the cell viability ([13]; 1 nM) was 84.7%. It also gave a cell viability ([13]; 10 nM) of 87.4%, a cell viability ([13]; 100 nM) of 81.4% and a cell viability ([13]; 1000 nM) of 78.5%. For the same molecule, the cell viability ([13]; 10000 nM) was 105%, the cell viability ([14]; 1 nM) was 105% and the cell viability ([14]; 10 nM) was 99.7%. The cell viability ([14]; 100 nM) was 104%, the cell viability ([14]; 1000 nM) was 97.6% and the cell viability ([14]; 10000 nM) was 100%. For the same molecule, the cell viability ([15]; 1 nM) was 97.4%, the cell viability ([15]; 10 nM) was 98.7% and the cell viability ([15]; 100 nM) was 82.1%. For the same molecule, the cell viability ([15]; 1000 nM) was 93.6% and the cell viability ([15]; 10000 nM) was 105%.
